Results on 15 molecules are retold here after US20150344466A1 (SUMITOMO CHEMICAL COMPANY, LIMITED, priority 2013, published 2015).

This experiment has as its system Culex pipiens pallens. Description: Knockdown spray test on adult Culex pipiens pallens (Test Example 4). The experiment is classed as in vivo. The conditions noted are these: topical, 0.25 h, active ingredient 0.1% w/v, 0.5 ml sprayed, within 15 minutes, read-out: knockdown rate of the test insects within 15 minutes. The protocol: Ten adult Culex pipiens pallens were released in a polyethylene cup (bottom diameter: 10.6 cm), and the cup was covered with a 16-mesh nylon gauze. The polyethylene cup was placed on the bottom of a test chamber (bottom: 46 cm×46 cm, height: 70 cm). From a height of 30 cm above the upper surface of the polyethylene cup, 0.5 ml of the test drug solution was sprayed using a spray gun (a spraying pressure of 0.4 kg/cm^2). Immediately after spraying, the cup was taken out from the test chamber, and after 2 minutes, 5 minutes and 15 minutes, the number of knocked-down insects was counted to obtain a knockdown rate. The knockdown rate was calculated by the following equation.
Knockdown Rate (%)=(Number of Knocked-down Insects/Number of Tested Insects)×100
On to `O=C(NCC1CCOC1)c1cc(COCc2ccc3c(c2)OC(F)(F)O3)on1` (stereo not drawn) [(236), N-(tetrahydrofuran-3-ylmethyl)-5-[5-(2,2-difluoro-1,3-benzodioxolanyl)methoxymethyl]isoxazole-3-carboxamide], for which the pest or weed control at 0.1 % strength was at least 80%.

Regarding `O=C(NCC1CCOCC1)c1cc(COCc2ccc3c(c2)OC(F)(F)O3)on1` [(237), N-(tetrahydropyran-4-ylmethyl)-5-[5-(2,2-difluoro-1,3-benzodioxolanyl)methoxymethyl]isoxazole-3-carboxamide], the pest or weed control at 0.1 % strength was at least 80%.

Take `CC1(CNC(=O)c2cc(COCc3ccc4c(c3)OC(F)(F)O4)on2)COC1` [(238), N-(3-methyloxetan-3-ylmethyl)-5-[5-(2,2-difluoro-1,3-benzodioxolanyl)methoxymethyl]isoxazole-3-carboxamide]: the pest or weed control at 0.1 % strength is at least 80%.

`O=C(NCC1CCOC1)c1cc(COCc2ccc(-c3ccccc3)s2)on1` (stereo not drawn) [(241), N-(tetrahydrofuran-3-ylmethyl)-5-(5-phenyl-2-thienylmethoxymethyl)isoxazole-3-carboxamide]: the pest or weed control at 0.1 % strength is at least 80%.

Regarding `O=C(NCC1CCOC1)c1cc(CCCc2ccccc2F)on1` (stereo not drawn) [(245), N-(tetrahydrofuran-3-ylmethyl)-5-[3-(2-fluorophenyl)propyl]isoxazole-3-carboxamide], the pest or weed control at 0.1 % strength is at least 80%.

For the molecule `COc1ccc2cc(CCCc3cc(C(=O)NCC4CCOC4)no3)ccc2c1` (stereo not drawn) [(247), N-(tetrahydrofuran-3-ylmethyl)-5-[3-(6-methoxy-2-naphthyl)propyl]isoxazole-3-carboxamide], the pest or weed control at 0.1 % strength was at least 80%.

For the molecule `O=C(NCC1CCOC1)c1cc(CCCBr)on1` (stereo not drawn) [(248), N-(tetrahydrofuran-3-ylmethyl)-5-(3-bromopropyl)isoxazole-3-carboxamide], the pest or weed control at 0.1 % strength is at least 80%.

Regarding `C#Cc1c(C(=O)NCC2CCOC2)noc1COCc1ccccc1F` (stereo not drawn) [(249), N-(tetrahydrofuran-3-ylmethyl)-5-(2-fluorobenzyloxymethyl)-4-ethynylisoxazole-3-carboxamide], the pest or weed control at 0.1 % strength was at least 80%.

With `C#Cc1c(C(=O)NCC2CCOC2)noc1COCc1ccc2ccccc2c1` (stereo not drawn) [(250), N-(tetrahydrofuran-3-ylmethyl)-5-(2-naphthylmethoxymethyl)-4-ethynylisoxazole-3-carboxamide], the pest or weed control at 0.1 % strength was at least 80%.

On to `O=C(NCC1CCOC1)c1cc(CCCc2cccc(F)c2)on1` (stereo not drawn) [(251), N-(tetrahydrofuran-3-ylmethyl)-5-[3-(3-fluorophenyl)propyl]isoxazole-3-carboxamide], for which the pest or weed control at 0.1 % strength is at least 80%.

With `O=C(NCC1CCOC1)c1cc(CSCc2ccccc2)on1` (stereo not drawn) [(254), N-(tetrahydrofuran-3-ylmethyl)-5-benzylthiomethylisoxazole-3-carboxamide], the pest or weed control at 0.1 % strength is at least 80%.

For `O=C(NCC1CCOC1)c1noc(COCc2ccc3ccccc3c2)c1Br` (stereo not drawn) [(256), N-(tetrahydrofuran-3-ylmethyl)-5-(2-naphthylmethoxymethyl)-4-bromoisoxazole-3-carboxamide], the pest or weed control at 0.1 % strength is at least 80%.

For the molecule `O=C(NCC1CCOC1)c1cc(COCc2cc(F)ccc2F)on1` (stereo not drawn) [(259), N-(tetrahydrofuran-3-ylmethyl)-5-(2,5-difluorobenzyloxymethyl)isoxazole-3-carboxamide], the pest or weed control at 0.1 % strength was at least 80%.

As for `O=C(NCC1CCOC1)c1cc(COCc2cc(Br)cc(Br)c2)on1` (stereo not drawn) [(262), N-(tetrahydrofuran-3-ylmethyl)-5-(3,5-dibromobenzyloxymethyl)isoxazole-3-carboxamide], the pest or weed control at 0.1 % strength was at least 80%.

In the case of `O=C(NCC1CCOC1)c1cc(COCc2c(F)c(F)cc(F)c2F)on1` (stereo not drawn) [(269), N-(tetrahydrofuran-3-ylmethyl)-5-(2,3,5,6-tetrafluorobenzyloxymethyl)isoxazole-3-carboxamide], the pest or weed control at 0.1 % strength is at least 80%.
